# Activity calls are given as the source filed them.
# Experiments:
# [1] = biological target: Eukaryotic translation initiation factor 4E (Mus musculus, UniProt P63073); assay: eIF4E–eIF4G protein interaction inhibitors, dose response, biochemical, TR-FRET (AID 855); assay type: functional;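 note: potency for disrupting eIF4E binding to eIF4GI seen as loss of FRET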
# X-box-binding protein 1 = biological target: T1, X-box-binding protein 1 (Homo sapiens, UniProt P17861); assay type: functional, Cricetulus griseus;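 note: confirmatory dose-response counter-screen serving a CHOP assay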
# T1 sequence (P17861 whole entry): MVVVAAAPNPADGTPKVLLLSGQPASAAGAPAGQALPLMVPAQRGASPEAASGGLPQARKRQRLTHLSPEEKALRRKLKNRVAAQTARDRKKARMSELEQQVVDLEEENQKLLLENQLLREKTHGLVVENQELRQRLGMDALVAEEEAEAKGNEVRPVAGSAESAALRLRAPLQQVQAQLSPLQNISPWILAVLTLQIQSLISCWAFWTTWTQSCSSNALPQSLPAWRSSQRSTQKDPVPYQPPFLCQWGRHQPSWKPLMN
# Hexokinase HKDC1 = biological target: T2, Hexokinase HKDC1 (Homo sapiens, UniProt Q2TB90); assay: HKDC1 hexokinase inhibitors, dose response, biochemical, W721R variant (AID 504729); assay type: functional
# T2 sequence (Q2TB90 whole entry): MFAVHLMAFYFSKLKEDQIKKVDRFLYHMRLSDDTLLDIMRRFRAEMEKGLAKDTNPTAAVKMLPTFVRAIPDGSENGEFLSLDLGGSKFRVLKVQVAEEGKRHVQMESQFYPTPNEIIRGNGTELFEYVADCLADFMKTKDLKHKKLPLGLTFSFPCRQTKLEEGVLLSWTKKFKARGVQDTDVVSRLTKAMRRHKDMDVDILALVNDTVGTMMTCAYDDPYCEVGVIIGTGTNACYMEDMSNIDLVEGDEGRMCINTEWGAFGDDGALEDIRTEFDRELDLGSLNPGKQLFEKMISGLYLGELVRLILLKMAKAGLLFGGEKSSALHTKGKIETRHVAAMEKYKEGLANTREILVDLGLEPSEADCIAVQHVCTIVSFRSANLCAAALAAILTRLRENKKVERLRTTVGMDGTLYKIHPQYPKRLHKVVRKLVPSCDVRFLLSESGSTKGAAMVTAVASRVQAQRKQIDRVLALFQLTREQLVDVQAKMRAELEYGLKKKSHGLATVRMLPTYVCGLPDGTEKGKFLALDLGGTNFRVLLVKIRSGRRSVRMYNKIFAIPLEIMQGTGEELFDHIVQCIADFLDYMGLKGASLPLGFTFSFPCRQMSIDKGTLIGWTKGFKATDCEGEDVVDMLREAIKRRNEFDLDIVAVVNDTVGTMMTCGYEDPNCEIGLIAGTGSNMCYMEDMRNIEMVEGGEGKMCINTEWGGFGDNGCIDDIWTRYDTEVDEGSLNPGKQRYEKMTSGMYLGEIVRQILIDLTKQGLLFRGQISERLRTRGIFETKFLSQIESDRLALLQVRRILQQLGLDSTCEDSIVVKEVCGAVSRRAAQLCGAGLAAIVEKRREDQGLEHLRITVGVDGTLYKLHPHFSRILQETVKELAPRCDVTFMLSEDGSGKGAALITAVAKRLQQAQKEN
# [2] = cytotoxicity in MIN6 insulinoma cells, dose response, cytotoxicity control, cell-based, mouse insulinoma (AID 2122); assay type: functional;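 note: confirmatory high-throughput counterscreen run to flag cytotoxic compounds; mouse MIN-6 beta cells carrying an insulin promoter eGFP reporter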
# [3] = biological target: T3, Sentrin-specific protease 8 (Homo sapiens, UniProt Q96LD8); assay type: functional;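 note: luminescence read-out of SENP8 inhibition, dose-response confirmation following an ultra-high-throughput screen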
# T3 sequence (Q96LD8 whole entry): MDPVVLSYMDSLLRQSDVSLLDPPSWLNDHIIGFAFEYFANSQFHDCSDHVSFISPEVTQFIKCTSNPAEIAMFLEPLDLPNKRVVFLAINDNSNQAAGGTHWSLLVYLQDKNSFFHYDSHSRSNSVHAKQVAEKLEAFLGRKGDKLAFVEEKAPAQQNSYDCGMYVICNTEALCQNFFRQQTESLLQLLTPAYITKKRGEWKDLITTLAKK
# [4] = biological target: T4, Sentrin-specific protease 6 (Homo sapiens, UniProt Q9GZR1); assay type: functional;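 note: Luminescence-based dose-response confirmatory assay of SENP6 inhibition, following up an ultra-high-throughput screen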
# T4 sequence (Q9GZR1 whole entry): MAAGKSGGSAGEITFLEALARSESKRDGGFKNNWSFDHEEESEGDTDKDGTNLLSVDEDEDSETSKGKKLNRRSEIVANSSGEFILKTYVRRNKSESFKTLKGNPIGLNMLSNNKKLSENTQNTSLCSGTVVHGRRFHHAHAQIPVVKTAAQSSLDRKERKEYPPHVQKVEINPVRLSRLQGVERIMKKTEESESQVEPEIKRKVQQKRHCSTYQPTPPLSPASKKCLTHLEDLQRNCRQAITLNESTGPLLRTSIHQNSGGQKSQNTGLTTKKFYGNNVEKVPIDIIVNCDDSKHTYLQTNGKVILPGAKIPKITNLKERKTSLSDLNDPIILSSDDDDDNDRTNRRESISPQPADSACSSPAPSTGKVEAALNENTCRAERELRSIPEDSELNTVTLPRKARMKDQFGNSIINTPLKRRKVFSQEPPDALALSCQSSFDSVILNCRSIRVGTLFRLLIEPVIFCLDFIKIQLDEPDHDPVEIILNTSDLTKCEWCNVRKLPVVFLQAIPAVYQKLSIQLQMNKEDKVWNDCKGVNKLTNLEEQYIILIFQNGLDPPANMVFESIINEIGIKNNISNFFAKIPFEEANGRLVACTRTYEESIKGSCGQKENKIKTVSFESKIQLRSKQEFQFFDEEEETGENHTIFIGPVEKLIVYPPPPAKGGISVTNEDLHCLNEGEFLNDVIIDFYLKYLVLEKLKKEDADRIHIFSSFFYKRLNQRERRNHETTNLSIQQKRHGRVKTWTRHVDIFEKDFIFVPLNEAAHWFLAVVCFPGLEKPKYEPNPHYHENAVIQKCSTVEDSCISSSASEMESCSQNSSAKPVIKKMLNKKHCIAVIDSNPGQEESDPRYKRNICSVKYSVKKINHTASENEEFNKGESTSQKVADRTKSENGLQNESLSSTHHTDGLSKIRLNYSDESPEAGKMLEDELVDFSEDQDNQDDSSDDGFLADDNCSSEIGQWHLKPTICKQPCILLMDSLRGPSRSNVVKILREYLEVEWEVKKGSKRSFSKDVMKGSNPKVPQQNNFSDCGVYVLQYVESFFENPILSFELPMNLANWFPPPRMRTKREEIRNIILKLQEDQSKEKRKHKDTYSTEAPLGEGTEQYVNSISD
# [5] = biological target: Intestinal-type alkaline phosphatase (Mus musculus, UniProt P24822); assay: mouse intestinal alkaline phosphatase activators, dose response, biochemical, luminescence, uHTS hits (AID 488783); assay type: functional
# Sequence of Intestinal-type alkaline phosphatase (Mus musculus, UniProt P24822) (P24822 whole entry): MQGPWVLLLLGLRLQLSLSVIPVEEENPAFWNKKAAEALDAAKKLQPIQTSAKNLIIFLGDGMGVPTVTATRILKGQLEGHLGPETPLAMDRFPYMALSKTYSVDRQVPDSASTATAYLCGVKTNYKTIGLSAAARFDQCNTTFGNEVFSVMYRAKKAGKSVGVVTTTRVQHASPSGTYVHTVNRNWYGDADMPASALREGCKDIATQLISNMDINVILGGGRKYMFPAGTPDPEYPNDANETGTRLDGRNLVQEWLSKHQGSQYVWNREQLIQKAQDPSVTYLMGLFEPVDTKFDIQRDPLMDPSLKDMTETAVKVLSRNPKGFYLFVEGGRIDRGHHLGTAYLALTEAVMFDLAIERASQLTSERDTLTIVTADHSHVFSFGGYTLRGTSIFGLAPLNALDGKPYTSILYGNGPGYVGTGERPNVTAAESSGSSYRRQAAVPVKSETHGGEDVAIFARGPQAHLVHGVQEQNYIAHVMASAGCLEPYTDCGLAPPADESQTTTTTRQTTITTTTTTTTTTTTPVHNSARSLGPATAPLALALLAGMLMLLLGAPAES
# [6] = biological target: Intestinal-type alkaline phosphatase (Homo sapiens, UniProt P09923); assay: activation of human intestinal alkaline phosphatase – biochemical, dose response (AID 488873); assay type: functional
# Sequence of Intestinal-type alkaline phosphatase (Homo sapiens, UniProt P09923) (P09923 whole entry): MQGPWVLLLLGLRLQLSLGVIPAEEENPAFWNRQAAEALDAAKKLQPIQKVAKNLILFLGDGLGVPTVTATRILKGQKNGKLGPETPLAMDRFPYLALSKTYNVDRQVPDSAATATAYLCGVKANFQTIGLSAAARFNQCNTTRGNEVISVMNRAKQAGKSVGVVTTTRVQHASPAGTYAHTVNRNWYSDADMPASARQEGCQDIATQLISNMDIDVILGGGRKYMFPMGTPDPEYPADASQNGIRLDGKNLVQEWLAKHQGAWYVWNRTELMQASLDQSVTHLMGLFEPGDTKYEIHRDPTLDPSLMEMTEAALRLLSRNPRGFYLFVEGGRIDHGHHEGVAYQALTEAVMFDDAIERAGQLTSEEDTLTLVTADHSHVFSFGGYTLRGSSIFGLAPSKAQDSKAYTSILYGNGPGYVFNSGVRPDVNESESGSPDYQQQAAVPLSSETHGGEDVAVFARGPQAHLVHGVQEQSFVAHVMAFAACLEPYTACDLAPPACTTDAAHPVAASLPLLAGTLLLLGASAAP
# [7] = inhibitors of Vif binding to APOBEC3G peptide, primary screen, biochemical, TR-FRET, GST-Vif 1-94, biotin-A3G peptide, dose response retest (AID 1117319); assay type: functional;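 note: TR-FRET signal of purified GST-Vif binding a biotinylated A3G peptide; inhibitors lower the FRET signal by blocking Vif and A3G binding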
# [8] = Vero cell cytotoxicity, dose response, cytotoxicity control for Vif-APOBEC3G degradation inhibitor project, Vero cells (AID 1117358); assay type: functional; conditions: Human immunodeficiency virus 1, Vero
# cells = assay type: functional, cell-based
# Sequence of Eukaryotic translation initiation factor 4E (P63073 whole entry): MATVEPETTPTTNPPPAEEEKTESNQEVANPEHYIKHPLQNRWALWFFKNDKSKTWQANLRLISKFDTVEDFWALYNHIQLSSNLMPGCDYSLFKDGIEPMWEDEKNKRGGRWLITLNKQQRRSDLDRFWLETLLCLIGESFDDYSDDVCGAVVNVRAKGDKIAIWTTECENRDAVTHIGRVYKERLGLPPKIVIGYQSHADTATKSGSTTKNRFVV
smiles,measurement,setting,value
CCc1nnc(NS(=O)(=O)c2ccc(NC(=S)NC(=O)/C=C/c3ccc(C(C)C)cc3)cc2)s1,IC50,[1],22.9 µM (active)
same,Absolute IC50 (XBP1),X-box-binding protein 1,10 µM
O=C1C(Nc2ccc(O)cc2)=C/C(=N/S(=O)(=O)c2cccs2)c2ccccc21,IC50,Hexokinase HKDC1,8.31 µM (active)
same,IC50,[2],0.702 µM (active)
COc1ccc(S(=O)(=O)Nc2cc(SCC(=O)O)c(O)c3ccccc23)cc1,IC50,[3],9.39 µM (active)
same,IC50,Hexokinase HKDC1,12 µM (active)
same,IC50,[4],3.81 µM (active)
CC1CC(=O)c2c(cc3c(-c4c(O)cc(O)c5c(O)c6c(cc45)OC(C)CC6=O)c(O)cc(O)c3c2O)O1 (centres undefined) [CEPHALOCHROMIN],EC50,[5],19.1 µM (active)
same,EC50,[6],21.7 µM (active)
O=C(/C=C/c1ccco1)Nc1ccc(Oc2ccccc2)cc1,IC50,[3],17.4 µM (active)
same,IC50,[7],> 100 µM (active)
same,IC50,[4],5.23 µM (active)
same,CC50,[8],> 40 µM (active)
same,EC50,cells,6.08 µM (active)

# From ChEMBL document CHEMBL1201862, “PubChem BioAssay data set” (2004)
